What all share (experiment): relative viability (nuclei count vs DMSO), 5 days (fraction); higher = more cells survive
Compound in assay [1]: CC1=C(C(=NN1)C)CC2=C(C3=C(S2)N(C(=O)N(C3=O)C)CC(C)C)C(=O)N4C[C@@H](CO4)O + CCNC(=O)c1noc(-c2cc(C(C)C)c(O)cc2O)c1-c1ccc(CN2CCOCC2)cc1 [Luminespib] (partner 0.01 µM)
The method, boiled down:
(§1)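 Cells from lung cancer lines were seeded into 1536-well plates and, one day later, dosed by pin tool. Treatments were either a single drug or a fixed dose of an anchor drug with five library-drug doses (not always all listed) in √10 steps. After 5 days, nuclei were stained in a one-step fixation (final 0.05% Triton X-100, 1% formaldehyde, 1 ug/ml Hoechst) and counted on 4× images, and relative viability is the treated-to-vehicle nuclei ratio, as the median of duplicate plates.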

Compound in the assay “IDH-C35 + Trametinib”: Cc1ccccc1C(C(=O)NC1CCCCC1)N(C(=O)Cn1ccnc1C)c1cccc(F)c1 [IDH-C35] + CC(=O)Nc1cccc(-n2c(=O)n(C3CC3)c(=O)c3c(Nc4ccc(I)cc4F)n(C)c(=O)c(C)c32)c1 [Trametinib] (partner 0.02 µM)
The procedure, abridged: as §1

Compound in the assay “IDH-C35 + Linsitinib”: Cc1ccccc1C(C(=O)NC1CCCCC1)N(C(=O)Cn1ccnc1C)c1cccc(F)c1 [IDH-C35] + C[C@]1(O)C[C@@H](c2nc(-c3ccc4ccc(-c5ccccc5)nc4c3)c3c(N)nccn32)C1 [Linsitinib] (partner 1 µM)
The procedure, abridged: as §1

Compound in the assay “IDH-C35 + Decitabine”: Cc1ccccc1C(C(=O)NC1CCCCC1)N(C(=O)Cn1ccnc1C)c1cccc(F)c1 [IDH-C35] + Nc1ncn([C@H]2C[C@H](O)[C@@H](CO)O2)c(=O)n1 [Decitabine] (partner 2 µM)
The procedure, abridged:
as §1

Take NCI-H3122: the relative viability in assay [1] (first compound 0.0025 µM) is 0.088; in assay [1] (first compound 0.007906 µM) it was 0.101; in assay [1] (first compound 0.025 µM) it was 0.0902; in assay [1] (first compound 0.07906 µM) it was 0.0646; in assay [1] (first compound 0.25 µM) it was 0.11; in the assay with IDH-C35 + Trametinib (first compound 0.08 µM), 0.22. The relative viability with IDH-C35 + Trametinib (first compound 0.253 µM) was 0.249; with IDH-C35 + Trametinib (first compound 0.8 µM), 0.21; with IDH-C35 + Trametinib (first compound 2.53 µM) it was 0.236; with IDH-C35 + Trametinib (first compound 8 µM) it was 0.212; with IDH-C35 + Linsitinib (first compound 0.08 µM), 0.991; with IDH-C35 + Linsitinib (first compound 0.253 µM), 0.971. Also, the relative viability with IDH-C35 + Linsitinib (first compound 0.8 µM) is 0.972; in the assay with IDH-C35 + Linsitinib (first compound 2.53 µM) it was 1.01; in the assay with IDH-C35 + Linsitinib (first compound 8 µM), 1.02; with IDH-C35 + Decitabine (first compound 0.08 µM), 0.432; with IDH-C35 + Decitabine (first compound 0.253 µM), 0.428; in the assay with IDH-C35 + Decitabine (first compound 0.8 µM), 0.386. The relative viability in the assay with IDH-C35 + Decitabine (first compound 2.53 µM) came out at 0.473; with IDH-C35 + Decitabine (first compound 8 µM) it was 0.458.
On to PC-3 [JPC-3], for which the relative viability was 0.801 in assay [1] (first compound 0.0025 µM); 0.601 in assay [1] (first compound 0.007906 µM); 0.699 in assay [1] (first compound 0.025 µM); 0.773 in assay [1] (first compound 0.07906 µM); 0.786 in assay [1] (first compound 0.25 µM); 0.65 with IDH-C35 + Trametinib (first compound 0.08 µM). For the same cell line, the relative viability with IDH-C35 + Trametinib (first compound 0.253 µM) came to 0.745; in the assay with IDH-C35 + Trametinib (first compound 0.8 µM) it was 0.725; with IDH-C35 + Trametinib (first compound 2.53 µM) it was 0.758; with IDH-C35 + Trametinib (first compound 8 µM), 0.67; with IDH-C35 + Linsitinib (first compound 0.08 µM), 0.939; in the assay with IDH-C35 + Linsitinib (first compound 0.253 µM), 0.985. For the same cell line, the relative viability was 0.96 with IDH-C35 + Linsitinib (first compound 0.8 µM); 0.969 with IDH-C35 + Linsitinib (first compound 2.53 µM); 0.936 with IDH-C35 + Linsitinib (first compound 8 µM); 0.843 with IDH-C35 + Decitabine (first compound 0.08 µM); 0.795 with IDH-C35 + Decitabine (first compound 0.253 µM); 0.864 with IDH-C35 + Decitabine (first compound 0.8 µM). Moreover, the relative viability with IDH-C35 + Decitabine (first compound 2.53 µM) stood at 0.806; in the assay with IDH-C35 + Decitabine (first compound 8 µM), 0.807.
For PC-14, the relative viability in assay [1] (first compound 0.0025 µM) was 0.119; in assay [1] (first compound 0.007906 µM), 0.179; in assay [1] (first compound 0.025 µM) it was 0.286; in assay [1] (first compound 0.07906 µM), 0.276; in assay [1] (first compound 0.25 µM), 0.196; with IDH-C35 + Trametinib (first compound 0.08 µM), 0.645. The relative viability in the assay with IDH-C35 + Trametinib (first compound 0.253 µM) was 0.695; with IDH-C35 + Trametinib (first compound 0.8 µM), 0.735; with IDH-C35 + Trametinib (first compound 2.53 µM) it was 0.768; with IDH-C35 + Trametinib (first compound 8 µM), 0.705; with IDH-C35 + Linsitinib (first compound 0.08 µM), 0.967; in the assay with IDH-C35 + Linsitinib (first compound 0.253 µM), 0.939. The relative viability is 0.938 in the assay with IDH-C35 + Linsitinib (first compound 0.8 µM); 0.95 in the assay with IDH-C35 + Linsitinib (first compound 2.53 µM); 0.862 with IDH-C35 + Linsitinib (first compound 8 µM); 0.211 with IDH-C35 + Decitabine (first compound 0.08 µM); 0.206 in the assay with IDH-C35 + Decitabine (first compound 0.253 µM); 0.239 with IDH-C35 + Decitabine (first compound 0.8 µM). The relative viability stood at 0.226 with IDH-C35 + Decitabine (first compound 2.53 µM) and 0.214 with IDH-C35 + Decitabine (first compound 8 µM).
Consider RERF-LC-KJ, for which the relative viability amounted to 1.25 in assay [1] (first compound 0.0025 µM); 1.36 in assay [1] (first compound 0.007906 µM); 1.22 in assay [1] (first compound 0.025 µM); 1.16 in assay [1] (first compound 0.07906 µM); 1.32 in assay [1] (first compound 0.25 µM); 0.846 in the assay with IDH-C35 + Trametinib (first compound 0.08 µM). Further, the relative viability was 0.831 in the assay with IDH-C35 + Trametinib (first compound 0.253 µM); 0.868 in the assay with IDH-C35 + Trametinib (first compound 0.8 µM); 0.904 with IDH-C35 + Trametinib (first compound 2.53 µM); 0.779 with IDH-C35 + Trametinib (first compound 8 µM); 0.873 with IDH-C35 + Linsitinib (first compound 0.08 µM); 0.861 with IDH-C35 + Linsitinib (first compound 0.253 µM). For the same cell line, the relative viability was 0.871 in the assay with IDH-C35 + Linsitinib (first compound 0.8 µM); 0.906 in the assay with IDH-C35 + Linsitinib (first compound 2.53 µM); 0.904 in the assay with IDH-C35 + Linsitinib (first compound 8 µM); 0.727 with IDH-C35 + Decitabine (first compound 0.08 µM); 0.69 with IDH-C35 + Decitabine (first compound 0.253 µM); 0.753 in the assay with IDH-C35 + Decitabine (first compound 0.8 µM). Also, the relative viability came to 0.809 with IDH-C35 + Decitabine (first compound 2.53 µM) and 0.681 with IDH-C35 + Decitabine (first compound 8 µM).
SK-LU-1: the relative viability in assay [1] (first compound 0.0025 µM) was determined as 0.187; in assay [1] (first compound 0.007906 µM), 0.177; in assay [1] (first compound 0.025 µM) it was 0.182; in assay [1] (first compound 0.07906 µM) it was 0.183; in assay [1] (first compound 0.25 µM) it was 0.182; in the assay with IDH-C35 + Trametinib (first compound 0.08 µM), 0.454. Moreover, the relative viability amounted to 0.489 with IDH-C35 + Trametinib (first compound 0.253 µM); 0.507 with IDH-C35 + Trametinib (first compound 0.8 µM); 0.485 in the assay with IDH-C35 + Trametinib (first compound 2.53 µM); 0.536 with IDH-C35 + Trametinib (first compound 8 µM); 0.999 with IDH-C35 + Linsitinib (first compound 0.08 µM); 1.03 with IDH-C35 + Linsitinib (first compound 0.253 µM). Moreover, the relative viability with IDH-C35 + Linsitinib (first compound 0.8 µM) worked out at 1.07; in the assay with IDH-C35 + Linsitinib (first compound 2.53 µM), 1.22; in the assay with IDH-C35 + Linsitinib (first compound 8 µM), 1.1; with IDH-C35 + Decitabine (first compound 0.08 µM), 0.636; in the assay with IDH-C35 + Decitabine (first compound 0.253 µM) it was 0.687; with IDH-C35 + Decitabine (first compound 0.8 µM) it was 0.592. For the same cell line, the figures for the relative viability with IDH-C35 + Decitabine (first compound 2.53 µM) and in the assay with IDH-C35 + Decitabine (first compound 8 µM) were 0.65 and 0.654, respectively.
On to SK-MES-1, for which the relative viability is 1.01 in assay [1] (first compound 0.0025 µM); 0.782 in assay [1] (first compound 0.007906 µM); 0.969 in assay [1] (first compound 0.025 µM); 0.846 in assay [1] (first compound 0.07906 µM); 0.888 in assay [1] (first compound 0.25 µM); 0.513 with IDH-C35 + Trametinib (first compound 0.08 µM). Also, the relative viability with IDH-C35 + Trametinib (first compound 0.253 µM) was found to be 0.6; in the assay with IDH-C35 + Trametinib (first compound 0.8 µM), 0.581; in the assay with IDH-C35 + Trametinib (first compound 2.53 µM) it was 0.567; with IDH-C35 + Trametinib (first compound 8 µM) it was 0.45; with IDH-C35 + Linsitinib (first compound 0.08 µM), 1.15; in the assay with IDH-C35 + Linsitinib (first compound 0.253 µM), 0.986. In addition, the relative viability with IDH-C35 + Linsitinib (first compound 0.8 µM) was 1.05; in the assay with IDH-C35 + Linsitinib (first compound 2.53 µM), 0.957; with IDH-C35 + Linsitinib (first compound 8 µM), 0.99; with IDH-C35 + Decitabine (first compound 0.08 µM), 0.294; in the assay with IDH-C35 + Decitabine (first compound 0.253 µM), 0.39; with IDH-C35 + Decitabine (first compound 0.8 µM), 0.379. The figures for the relative viability in the assay with IDH-C35 + Decitabine (first compound 2.53 µM) and with IDH-C35 + Decitabine (first compound 8 µM) were 0.362 and 0.377, respectively.
Take SW 1573: the relative viability in assay [1] (first compound 0.0025 µM) is 0.32; in assay [1] (first compound 0.007906 µM), 0.322; in assay [1] (first compound 0.025 µM), 0.443; in assay [1] (first compound 0.07906 µM), 0.213; in assay [1] (first compound 0.25 µM), 0.332; in the assay with IDH-C35 + Trametinib (first compound 0.08 µM) it was 0.491. Further, the relative viability with IDH-C35 + Trametinib (first compound 0.253 µM) is 0.793; with IDH-C35 + Trametinib (first compound 0.8 µM), 0.531; with IDH-C35 + Trametinib (first compound 2.53 µM), 0.571; in the assay with IDH-C35 + Trametinib (first compound 8 µM) it was 0.518; with IDH-C35 + Linsitinib (first compound 0.08 µM), 0.78; with IDH-C35 + Linsitinib (first compound 0.253 µM) it was 0.752. Besides, the relative viability was determined as 0.832 in the assay with IDH-C35 + Linsitinib (first compound 0.8 µM); 0.821 with IDH-C35 + Linsitinib (first compound 2.53 µM); 0.678 in the assay with IDH-C35 + Linsitinib (first compound 8 µM); 0.491 with IDH-C35 + Decitabine (first compound 0.08 µM); 0.628 with IDH-C35 + Decitabine (first compound 0.253 µM); 0.564 in the assay with IDH-C35 + Decitabine (first compound 0.8 µM). Besides, the relative viability with IDH-C35 + Decitabine (first compound 2.53 µM) worked out at 0.544; in the assay with IDH-C35 + Decitabine (first compound 8 µM) it was 0.465.
